No end group written: not given here.
Legend:
[1] = test system: T cell immunity to MHC class I-restricted peptides R10K and SIINFEKL; set-up: species or system BALB/c mice; C57BL/6 mice; details: mouse, in vivo
[2] = test system: CD 11b+ APC; assay type: binding, C57 BL/6 mice
[3] = test system: chemokine gene-expression; set-up: species or system mice; details: mouse, in vivo
[4] = test system: Human THP-1 monocytic cells; assay type: binding
[5] = test system: SP2/0 cells expressing IgNP; set-up: species or system Balb/c mice; details: mouse, in vivo
[6] = test system: antibodies against hIgG; set-up: species or system C57BL/6 mice; details: mouse, in vivo, iv
[7] = mouse, in vivo, iv

Row | Substance | T cell immunity to MHC class I-restricted peptides (IFN-γ, IL-4 SFC/spleen) [1] | receptor binding on APC (competition with tagged pA:pU) [2] | chemokine expression in pulmonary tissue [3] | competition of binding of tagged pA:pU to THP-1 cells [4] | outcome of tumor-bearing mice [5] | prevention of high zone tolerance (anti-hIgG endpoint titers) [6] | detection of epitope in the blood as function of time post-injection [7]
1 | Polyadenylic-Polyuridylic Acid [pA:pU] | able to promote increased T cell immunity to different MHC class I-restricted peptides | bind to different cellular receptors | trigger expression of a wide range of chemokines | able to compete out the binding of tagged pA:pU | succumbed to disease | largely prevent high zone tolerance | –
2 | SFERFEIFPKE [HA peptide] | – | – | – | – | – | – | not detected in the periphery

Reference: patent publication US8809290B2 (priority 2002, dated 2014)
